The values below come from patent publication US9433663B2, “Mobilization of hematopoietic stem cells” (Children's Hospital Medical Center, priority 2008, dated 2016).

Assay [1] has as its target T1, Cdc42 (Mus musculus, UniProt P60766). The assay can be described thus: Rho GTPase effector pull-down in murine LDBM cells, Cdc42. On the set-up: endogenous in cells; host or cells: murine low density bone marrow (LDBM) cells. Type of assay: cell-based. The method, then:
To analyze the effects of CASIN on the formation of active GTP-bound Cdc42, RhoA, and Rac1, effector pulldown assays were carried out as described previously. Cdc42GAP^−/− MEF, LDBM, CD34^+ hCB cells were treated with CASIN at doses of 5-20 μM in parallel with vehicle control for 2 hrs after overnight starvation, and stimulated with cytokines subsequently. And then cells were lysed in a buffer containing 20 mM Tris-HCL (pH 7.6), 100 mM NaCl, 1% Triton X-100, 10 mM MgCl2, 2 mM NaF, and Protease inhibitor cocktail (Roche Diagnostics). Lysates were incubated with GST-P21-binding domain of PAK1 for RAC1-GTP and Cdc42-GTP, and GST-RBD domain of Rhotekin for RhoA-GTP respectively. Both bound- and unbound-form of Rho GTPases were probed by immunoblotting with antibodies specific for Rac1 (BD biosciences), Cdc42 (BD biosciences), and RhoA (cell signaling).
Target sequence in this assay (P60766 whole entry, the tested form may be a part): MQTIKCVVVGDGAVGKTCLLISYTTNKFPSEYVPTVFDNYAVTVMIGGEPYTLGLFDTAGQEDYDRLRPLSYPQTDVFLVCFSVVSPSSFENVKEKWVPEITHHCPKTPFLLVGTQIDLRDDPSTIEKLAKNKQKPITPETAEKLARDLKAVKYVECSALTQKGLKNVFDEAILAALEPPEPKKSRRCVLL

In assay [2] the test system is PIP2 induced F-actin assembly. Conditions: PIP2 induced F-actin assembly in xenopus egg extracts; read-out: IC50 (dose required to inhibit the maximum polymerization rate by 50%); cited from earlier work.
In another assay the test system is LDBM cells. In words: CFU-adhesion assay of LDBM cells on fibronectin. Type of assay: cell-based, murine. The source says:
(§1) To shed light on potential roles of CASIN in HSPC mobilization, the effects of CASIN on Cdc42-related cellular functions was studied, including adhesion, migration, and F-actin polymerization of progenitor cells in 32D myeloid progenitors. […] SDF-1α stimulation causes a reorganization of F-actin into a cortical ring around the cells. […] Thirdly, to gain further insight into cellular specificity and efficacy of CASIN, and also to rule out possible toxic effects by CASIN, Cdc42-involved BM progenitor cell functions were examined, including proliferation, adhesion, migration, and F-actin polymerization, in Cdc42^+/+ cells in parallel with Cdc42^−/− cells. In line with additional studies in a Cdc42 conditional knockout mouse model as described herein, Cdc42^−/− LDBM cells have increased CFU-forming progenitors compared to those of Cdc42^+/+.
Murine LDBM cells from Cdc42^+/+ as well as Cdc42^−/− mice were used for CFU-adhesion/migration experiments as described previously. Briefly, for adhesion experiment, in the presence or absence of prior CASIN treatment at doses of 5 and 10 μM, 10^5 cells were plated onto each well of 48-well plates pre-coated with fibronectin fragment CH296, which contains integrin α4β1-binding site. Adherent cells then were harvested by cells dissociation buffer (Gibco, Carlsbad, Calif.), and further plated in CFU assay. […]

The next assay deals with Lin^− BM cells. In words: FACS analysis of F-actin in Lin− BM cells. As to conditions: column-selected Lin^− BM cells, dose-dependent pattern. Type of assay: cell-based, murine.
Source text: as §1
On the technique in general: Flow cytometry measures light scatter and fluorescence of single cells or particles in a stream.

In assay [3] the test system is progenitor cells in spleen and liver. In words: CFU-C assays of spleen and liver after treatment. Conditions: after CASIN injection. Type of assay: in vivo, mice.
Assay [4] concerns primitive human hematopoietic cells (CD45+CD34+CD38−). The assay can be described thus: Example 7 mobilization of human HSC/Ps in NOD-SCID model. Type of assay: in vivo, NOD-SCID mice transplanted with CD34+ HCB cells. As to conditions: flow cytometry. The text has this: The mobilization effects of CASIN on human HSC/Ps using an established preclinical in vivo mouse model are examined. […] This reconstituting population of human hematopoietic cells is operationally defined as SCID-repopulating cells (SRCs), and accordingly represents candidate human HSCs.
Primitive CD34+ human neonatal umbilical cord blood cells are transplanted into sublethally irradiated recipients. Around 10-week posttransplantation, human multilineage repopulating capacity of transplanted HSCs is examined using flow cytometry for surface markers representing human lymphoid (CD19, CD20), myeloid (CD15, CD33) and primitive (CD34, CD38) hematopoietic subsets. […] To further characterize the effect of CASIN on mobilization of primitive human HSC mobilization, progenitor potential is determined using functional clonogenic assays of hematopoietic colony-forming units (CFUs) derived from HPCs33. Numbers of CFUs are counted posinjection of CASIN treatment, in comparison with control medium and G-CSF administration.

Assay [5] concerns the target T1, Cdc42. The assay can be described thus: Example 7 effector pull-down in LDBM and HCB cells, Cdc42. Type of assay: cell-based, murine LDBM and human HCB cells. The arrangement: endogenous in cells; host or cells: murine LDBM cells and human CD34+ HCB cells. The method, then:
To exclude the inhibitory effect of CASIN on other Rac isoforms, Rho GTPases, and Ras, broader effector pull-down experiments are performed on these possible candidates with gradient doses of CASIN in LDBM and HCB cells as previously described. In addition, CASIN has been indicated as a noncovalent and reversible inhibitor in Xenopus egg extract. To confirm it, reversibility is monitored in this set of effector pull-down experiments. Four treatment groups are divided for both LDBM and HCB cells: (1) Serum starvation 20 h; (2) Serum starvation 20 h+growth factors stimulation; (3) Serum starvation 20 h+CASIN treatment (doses: 1, 2.5, 5, and 10 μM) 3 h+growth factor stimulation; (4) Serum starvation 20 h+CASIN treatment (doses: 1, 2.5, 5, and 10 μM) 3 h+wash the cells, and culture for another 3 h for recovery+growth factors stimulation. […] Bound proteins are analyzed by immunoblotting with respective antibodies (BD Biosciences). Furthermore, changes of downstream targets of Cdc42, Rac, and Rho under the four treatment groups are assessed. Phosphorylation status of PAK1, WASP (effectors of Cdc42), WAVE (effector of Rac), and ROCK (effector of Rho) are monitored by western blots using respective antibodies.
Target sequence in this assay (P60766 1-188 limits assumed): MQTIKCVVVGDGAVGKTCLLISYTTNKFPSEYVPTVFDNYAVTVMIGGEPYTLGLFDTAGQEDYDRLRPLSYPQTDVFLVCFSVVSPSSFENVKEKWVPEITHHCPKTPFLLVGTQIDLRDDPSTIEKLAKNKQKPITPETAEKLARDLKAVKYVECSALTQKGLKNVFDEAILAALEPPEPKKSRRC

Assay [6] concerns the target Cdc42 (Homo sapiens, UniProt P60953). The assay can be described thus: nucleotide exchange: intersectin-induced association of mant-GDP with Cdc42. Type of assay: biochemical. Conditions: FIG. 1b. The source says:
For example, even at 10 times the IC50 of Cdc42, a 50% inhibition of the association of mant-GDP with Rac or Rho was not achieved.

Cdc42 (Homo sapiens, UniProt P60953), sequence (P60953 whole entry, species assumed): as the sequence (P60766 whole entry, the tested form may be a part) above

One may read the IC50 as the concentration that inhibits the measured activity by half. With `OCCNC1CCCc2c1[nH]c1ccc(-c3ccccc3)cc21` (centres unmarked) [CASIN], at Cdc42 [1] (pre-treatment at 5 and 10 μM, mixed cytokine stimulation), the Cdc42 activity result is “dose-dependent inhibition”. In addition, at Cdc42 [1] (removal of CASIN by a pre-wash), the “reversibility of Cdc42 activity inhibition” value is given as “reversible”. Moreover, the IC50 in assay [2] is 2 µM. For the same compound, in the assay on LDBM cells (Cdc42^+/+ LDBM cells), the “adhesion of colony-forming progenitors to fibronectin surface” value is on record as “dose-dependently inhibited”. Further, the “adhesion activity of Cdc42^−/− cells” value in the assay with LDBM cells (Cdc42^−/− LDBM cells) is “did not have additive effects”. Moreover, the “F-actin reorganization in response to SDF-1α” value with Lin^− BM cells is reported as “impaired”. Also, the “progenitor cells found in spleen and liver” value in assay [3] is recorded as “increased level”. Further, in assay [4], the “frequency and total number of primitive human hematopoietic cells (CD45+CD34+CD38−) in peripheral blood” value is on record as “increases significantly”. For the same compound, at Cdc42 [5], the “activity of Cdc42” value is listed as “specifically inhibit the activity of Cdc42 in a dose-dependent manner” and the “recovery of Cdc42 activity after wash” value was “recovers 3 h after CASIN is washed away”. Moreover, the “association of mant-GDP with Cdc42 induced by intersectin” value on Cdc42 [6] is reported as “dose-dependent inhibition”.
